Data reported in patent publication US12138256B2, “Treatment of cardiopulmonary disorders” (Bayer Aktiengesellschaft, priority 2021, dated 2024).
“And” between values parts separate entries of the source, which are not always exact repeats. Equal entries are not always repeated.

Tests used:
[1] = tested on: pulmonary vascular resistance (PVR); settings: cited from earlier work
[2] = tested on: thromboxane analog U46619 induced PAH in minipigs; experiment: Haemodynamics (PAP, BP) in the anesthetized thromboxane challenged PAH minipig after inhaled (nebulized) application (C-2.1); type: in vivo, Göttingen minipig; settings: inhaled; Ventavis 10 μg/kg nominal dose; comparative example 11 10, 30 and 100 μg/kg nominal dose; 240 min observation interval
Outline: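 Anesthetized, ventilated Göttingen minipigs (2-6 kg) given continuous infusion (0.3-0.75 μg/kg/min) to raise mean PAP above 25 mmHg, dosing starting after a 30 min plateau. Compound in 1% DMSO/0.2% citric acid, pH 8, nebulized via Aeroneb Pro into the inspiratory arm (~7 min; stock 300 μg/kg). PAP by Swan-Ganz catheter, BP via carotid catheter.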

[3] = tested on: thromboxane analog U46619 induced PAH in minipigs with ODQ or L-NAME pretreatment; experiment: PAH minipig model under oxidative stress / low NO (pretreatment by ODQ or L-NAME); type: in vivo, Göttingen minipig; design: PAP / BP: unit not given beside the values; settings: for BP / PAP: Ventavis 10 μg/kg nominal dose inhaled
Method: To simulate conditions of oxidative stress or low NO concentrations as assumed to be present in different cardiovascular disorders, comparative example 11 was evaluated with and without pretreatment by ODQ (inhibitor of sGC) or L-NAME (NOS inhibitor). […] In contrast, the effects of Ventavis® under conditions of oxidative stress or low NO concentrations were not enhanced. In addition, also under these pathophysiological conditions the duration of action of comparative example 11 was much longer compared to Ventavis®.

[4] = tested on: isolated Langendorff-perfused rat heart; experiment: Isolated perfused heart according to Langendorff: perfusion pressure and wash-out score (C-1.2); settings: comparative example 11 300 nmol/l, others 100 nmol/l, n=6
Method: Male Wistar rats (strain HsdCpb:WU) with a body weight of 200-250 g were anaesthetized with Narcoren® (100 mg/kg). The thorax was opened and the heart was then exposed, excised and connected to a Langendorff apparatus by placing a cannula into the aorta. The heart was perfused retrogradely at 9 ml/min at constant flow with a Krebs-Henseleit buffer solution (gassed with 95% O2 and 5% CO2, pH 7.4, 35° C.; composition in mmol/l: NaCl 118; KCl 3; NaHCO3 22; KH2PO4 1.2; MgSO4 1.2; CaCl2 1.8; Glucose 10; Na pyruvate 2). A pressure transducer registered the perfusion pressure in the perfusion system. The left ventricular pressure (LVP) was measured using a second pressure transducer connected to a water-filled balloon which was inserted into the left ventricle via the left atrium. The end diastolic pressure was initially set to 8 mm Hg by adjusting the volume of the balloon. The hearts were spontaneously beating. The signals from the pressure transducer were amplified, registered by a personal computer (Powerlab Chart software, ADInstruments).
Then the hearts were perfused for a further 120 min without the test substance (wash-out phase). The reversibility of the effect (wash-out score) was calculated as a percentage of the PP recovery after 60 min of washout related to the maximum drop of PP induced by the test compound. The wash-out score obtained in this manner was taken as a measure for the residence time of the test substance at the site of action.

[5] = tested on: thromboxane analog U46619 induced PAH in minipigs; experiment: PAH minipig model: comparison with and on top of standard of care (bosentan, sildenafil, riociguat); type: in vivo, Göttingen minipig
Description: Efficacy of inhaled comparative example 11 was compared with systemically applied bosentan, sildenafil and riociguat (see FIG. 53a) in the PAH minipig model. […] Therefore inhaled application of comparative example 11 offers clear benefits as systemic effects are avoided, compared to standard of care.

[6] = Caco-2 permeability test (C-5.1); type: in vitro ADME, human; settings: human, Caco-2 (2 μM)
Method: The in vitro permeation of a test compound across a Caco-2 cell monolayer is a well-established assay system to predict the permeability from the gastro-intestinal tract (1). The permeability of the compounds of the present invention in such Caco-2 cells was determined as described below:
Human caco-2 cells were seeded on 24-well insert plates and were allowed to grow for 14-16 days. For permeability studies, the test compounds were dissolved in DMSO and diluted to the final test concentration of 2 μM with transport buffer [Hanks' Buffered Salt Solution, Gibco/Invitrogen, further supplemented with glucose and HEPES]. For determination of the apical to basolateral permeability (PappA-B), the test compound solution was added to the apical side of the cell monolayer and transport buffer to the basolateral side of the monolayer; for determination of the basolateral to apical permeability (PappB-A), the test compound solution was added to the basolateral side of the cell monolayer and transport buffer to the apical side of the monolayer. Samples were taken from the donor compartment at the beginning of the experiment to confirm mass balance. After an incubation of 2 h at 37° C., samples were taken from both compartments. Samples were analyzed by LC-MS/MS, and the apparent permeability coefficients were calculated. Lucifer Yellow permeability was assayed for each cell monolayer to ensure cell monolayer integrity, and the permeability of Atenolol (low permeability marker) and Sulfasalazine (marker for active excretion) was determined for each batch as quality control.

[7] = Protein binding via ultrafiltration assay (comparative example 2); type: in vitro ADME
Description: For this assay, filter membranes of 30 kDa pore size were used to separate plasma and protein free ultrafiltrate. The driving force for filtration was applied by centrifugation. Prior to protein binding studies, the adsorption (recovery) of the test compound to the ultra-filtration device and the ability of the test compound to pass the filter membrane was checked by filtration of the test compound dissolved in buffer at four concentrations. Sufficient stability of the test compound and an almost complete recovery (≥90% of the actual amount of compound used for the experiment) was a prerequisite for the use of the ultrafiltration method. The amount of organic solvent added to the plasma may not exceed 2% of the total incubation volume. Blood samples were collected in heparinized tubes either pooled (all species except human and monkey) or individually (human and monkey) and were used within 24 h for incubation experiments in blood. Plasma was prepared by centrifugation of the heparinized blood samples. Plasma was stored at −15° C. until use. Plasma stability, Compound recovery, unspecific binding to the membrane and the test device as well as partitioning between blood cells and plasma were controlled. The substance-associated radioactivity was determined by liquid scintillation counting. With this analytical method, it is not possible to distinguish between unchanged substance and radioactive metabolites. For details of the radioanalytical methods and the work up of the samples see Goeller et al. (3). A description of the ultrafiltration method in general was published by Zhang et al. In 2012 (4).

[8] = tested on: acetylcholine-induced bronchospasm; experiment: Bronchorelaxation in vivo: acetylcholine-induced bronchoconstriction in Brown Norway rats, RL and Cdyn (C-3.2); design: species or system rat; settings: inhaled 60 minutes before provocation; tiotropium 1 μg/kg; comparative example 11 1, 10 and 100 μg/kg
Method: The bronchoconstriction model (see Hoymann H G. Lung function measurements in rodents in safety pharmacology studies. Front Pharmacol 2012; 3:156) used Male Brown Norway rats (Charles River, Sulzfeld, Germany; 10-12 weeks old) randomized to three treatment groups (comparative example 11, 1 μg/kg, 10 μg/kg, and 100 μg/kg; n=12-13), one positive control group (tiotropium 1 μg/kg; n=12), and one vehicle control group (n=17). Animals were treated with the inhaled test compounds 60 minutes before provocation. Comparative example 11, vehicle, or tiotropium were aerosolized using a micro feeding system and a dispersion nozzle operated with pressurized air. The aerosol concentration was determined by filter sampling with gravimetrical analysis and monitored continuously by a photometer. The lung-deposited doses were assessed from the inhalation dose (Raabe O G, Al-Bayati M A, Teague S V, Rasolt A. Regional Deposition of Inhaled Monodisperse Coarse and Fine Aerosol Particles in Small Laboratory Animals. The Annals of Occupational Hygiene 1988; 32:53-63.). […] After reaching a steady state in respiration, lung function of the spontaneously breathing animal was recorded as baseline values for ≥2 minutes; amongst other parameters, lung resistance (=RL) and dynamic compliance (=Cdyn) were used to assess bronchoconstriction. […]

[9] = Riociguat 3 μg/kg/h systemically applied, % change per animal

CCCCC[C@H](O)CC[C@@H]1[C@H]2Cc3cccc(OCC(=O)O)c3C[C@H]2C[C@H]1O [Treprostinil]
mean change in PVR from baseline ([1]; single administration, historical comparison): −30%

CC#CCC(C)[C@H](O)/C=C/[C@@H]1[C@H]2C/C(=C/CCCC(=O)O)C[C@H]2C[C@H]1O (stereo partly shown) [Ventavis, reference compound]
duration of action [2]: about 40 min
BP ([3]; L-NAME pretreatment, Time 70): 105.0 and 133.0 and 125.0
PAP ([3]; L-NAME pretreatment, Time 70): 31.7 and 27.4 and 28.7
BP ([3]; L-NAME pretreatment, Time 80): 106.0 and 131.0 and 123.0
PAP ([3]; L-NAME pretreatment, Time 80): 41.2 and 33.5 and 29.7
BP ([3]; L-NAME pretreatment, Time 90): 102.0 and 124.0 and 121.0
PAP ([3]; L-NAME pretreatment, Time 90): 42.2 and 37.9 and 32.1
BP ([3]; L-NAME pretreatment, Time 100): 101.0 and 124.0 and 117.0
PAP ([3]; L-NAME pretreatment, Time 100): 41.5 and 39.6 and 38.9
BP ([3]; L-NAME pretreatment, Time 110): 101.0 and 125.0 and 114.0
PAP ([3]; L-NAME pretreatment, Time 110): 41.5 and 41.0
BP ([3]; ODQ pretreatment, Time 70): 97.0 and 103.0 and 92.0
PAP ([3]; ODQ pretreatment, Time 70): 33.6 and 26.4 and 25.9
BP ([3]; ODQ pretreatment, Time 80): 98.0 and 105.0 and 92.0
PAP ([3]; ODQ pretreatment, Time 80): 37.4 and 32.8 and 32.1
BP ([3]; ODQ pretreatment, Time 90): 100.0 and 104.0 and 92.0
PAP ([3]; ODQ pretreatment, Time 90): 38.5 and 37.5 and 38.2
BP ([3]; ODQ pretreatment, Time 100): 101.0 and 104.0 and 93.0
PAP ([3]; ODQ pretreatment, Time 100): 38.8 and 40.6 and 39.2
BP ([3]; ODQ pretreatment, Time 110): 103.0 and 94.0
PAP ([3]; ODQ pretreatment, Time 110): 39.3 and 39.5 and 40.0
BP ([3]; without pretreatment, Time 70): 107.0 and 109.0 and 116.0
PAP ([3]; without pretreatment, Time 70): 26.1 and 28.2 and 29.6
BP ([3]; without pretreatment, Time 80): 102.0 and 110.0 and 113.0
PAP ([3]; without pretreatment, Time 80): 34.7 and 36.7 and 37.4
BP ([3]; without pretreatment, Time 90): 99.0 and 109.0 and 111.0
PAP ([3]; without pretreatment, Time 90): 38.9 and 41.2
BP ([3]; without pretreatment, Time 100): 98.0 and 106.0 and 108.0
PAP ([3]; without pretreatment, Time 100): 37.9 and 39.2 and 41.9
BP ([3]; without pretreatment, Time 110): 95.0 and 105.0 and 106.0
PAP ([3]; without pretreatment, Time 110): 38.4 and 39.5 and 42.2
effect on PAP after pretreatment of ODQ or L-NAME ([3]; inhaled, comparative example 11 30 μg/kg ND, Ventavis 10 μg/kg nominal dose): not enhanced
duration of action on haemodynamics (PVR) in clinical studies ([1]; inhaled, patients): about 60 min

COC(=O)N(C)c1c(N)nc(-c2nn(Cc3ccccc3F)c3ncccc23)nc1N [comparative example 2, Methyl-4,6-diamino-2-[1-(2-fluorobenzyl)-1H-pyrazolo[3,4-b]pyridine-3-yl]-5-pyrimi-dinyl(methyl)carbamate, reference compound]
wash-out score ([4]; PP recovery after 60 min of washout related to maximum drop of PP): 98%
effect on perfusion pressure (PP) [4]: pronounced reduction of perfusion pressure
BP decrease % [5, 9]: −0.3% and −8.8% and −10.9%
PAP decrease % [5, 9]: −9.1% (2×) and −16.8%
effects on PAP and BP ([5]; bosentan 1 mg/kg, sildenafil 300 μg/kg/h, riociguat 3 μg/kg/h systemically, comparative example 11 30 and 100 μg/kg inhaled): decreases in both PAP and BP
efflux ratio at 2 h, 2 μM [6]: 11 ± 3.3
Papp A→B at 2 h, 2 μM ([6]; concentration per compound 2.0 or 2.4 μM, read-out: Papp A-B (mean +/− SD)): 3.5 ± 0.84 ×10⁻⁶ cm/s
Papp B→A at 2 h, 2 μM ([6]; concentration per compound 2.0 or 2.4 μM, read-out: Papp B-A (mean +/− SD)): 36.7 ± 7.5 ×10⁻⁶ cm/s
fraction unbound ([7]; Dog Beagle plasma): 0.171
fraction unbound ([7]; Human (male) plasma): 0.0497
fraction unbound ([7]; Rat Wistar plasma): 0.157

C[N+]1(C)[C@@H]2C[C@@H](OC(=O)C(O)(c3cccs3)c3cccs3)C[C@H]1[C@@H]1O[C@@H]12 [tiotropium, reference compound]
bronchodilatory efficacy (RL) [8]: inhibited acetylcholine-induced bronchospasm
